# Measurements reported in US6737383B1, “Herbicidal oxadiazolidines” (priority 1999, dated 2004).
# How the values were obtained:
# [1] = test system: cocklebur; experiment: Test B pre/postemergence cocklebur; type: in vivo, Xanthium strumarium
# Procedure, shortened: (§1)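 Response is a visual 0-to-10 score relative to untreated plants, where 0 means no effect and 10 means complete control, taken twelve to sixteen days after application. Treatments went onto soil at planting and onto foliage of 1- to 4-leaf plants, using a surfactant-containing non-phytotoxic solvent.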
# [2] = test system: wild oat; experiment: Test B pre/postemergence wild oat; type: in vivo, Avena fatua
# Procedure, shortened: as §1
# [3] = test system: pigweed; experiment: Test B pre/postemergence pigweed; type: in vivo, Amaranthus retroflexus
# Procedure, shortened: as §1
# [4] = test system: surinam grass; experiment: Test B pre/postemergence surinam grass; type: in vivo, Brachiaria decumbens
# Procedure, shortened: as §1
# [5] = test system: crabgrass; experiment: Test B pre/postemergence crabgrass; type: in vivo, Digitaria sanguinalis
# Procedure, shortened: as §1
# [6] = test system: purple nutsedge; experiment: Test B pre/postemergence purple nutsedge; type: in vivo, Cyperus rotundus
# Procedure, shortened: as §1
# [7] = test system: soybean; experiment: Test B pre/postemergence soybean; type: in vivo, Glycine max
# Procedure, shortened: as §1
# [8] = test system: rape; experiment: Test B pre/postemergence rape; type: in vivo, Brassica napus
# Procedure, shortened: as §1
# [9] = test system: blackgrass; experiment: Test B pre/postemergence blackgrass; type: in vivo, Alopecurus myosuroides
# Procedure, shortened: as §1
# [10] = test system: bedstraw; experiment: Test B pre/postemergence bedstraw; type: in vivo, Galium aparine
# Procedure, shortened: as §1
# [11] = test system: giant foxtail; experiment: Test B pre/postemergence giant foxtail; type: in vivo, Setaria faberii
# Procedure, shortened: as §1
# [12] = test system: wheat; experiment: Test B pre/postemergence wheat; type: in vivo, Triticum aestivum
# Procedure, shortened: as §1
# [13] = test system: corn; experiment: Test B pre/postemergence corn; type: in vivo, Zea mays
# Procedure, shortened: as §1
# [14] = test system: morningglory; experiment: Test B pre/postemergence morningglory; type: in vivo, Ipomoea hederacea
# Procedure, shortened: as §1
# [15] = test system: sugar beet; experiment: Test B pre/postemergence sugar beet; type: in vivo, Beta vulgaris
# Procedure, shortened: as §1
# [16] = test system: velvetleaf; experiment: Test B pre/postemergence velvetleaf; type: in vivo, Abutilon theophrasti
# Procedure, shortened: as §1
# [17] = Postemergence, Rate 62 g/ha, scale of 0 to 10, 0 is no effect, 10 is complete control
# [18] = Postemergence, Rate 125 g/ha, scale 0 to 10, 0 is no effect, 10 is complete control
# [19] = Postemergence, Rate 500 g/ha, scale 0 to 10, 0 is no effect, 10 is complete control
# [20] = Preemergence, Rate 62 g/ha, scale of 0 to 10 where 0 is no effect and 10 is complete control
# [21] = Preemergence, Rate 125 g/ha, scale 0 to 10, 0 is no effect, 10 is complete control
# [22] = Rate 250 g/ha, Postemergence, scale of 0 to 10 where 0 is no effect and 10 is complete control
# [23] = Preemergence, Rate 500 g/ha, scale of 0 to 10 where 0 is no effect and 10 is complete control
# [24] = Preemergence, Rate 500 g/ha, scale 0 to 10, 0 is no effect, 10 is complete control
compound,measurement,setting,value
CC(C)N(C(=O)n1oc(=O)n(CCCCF)c1=O)c1ccc(F)cc1F [Compound 522],Cocklebur plant response rating,[1]; [17],0
same,Cocklebur plant response rating,[1]; [18],3
same,"Plant response rating, Cocklebur",[1]; [19],3
same,"Plant response rating, Cocklebur",[1]; [20],0
same,Cocklebur plant response rating,[1]; [21],0
same,Cocklebur plant response rating (0 to 10 scale),"[1]; Preemergence, Rate 250 g/ha",0
same,"Plant response rating, Cocklebur",[1]; [22],3
same,Wild oats plant response rating,[2]; [17],0
same,Wild oats plant response rating,[2]; [18],4
same,"Plant response rating, Wild oats",[2]; [19],7
same,"Plant response rating, Wild oats",[2]; [20],10
same,Wild oats plant response rating,[2]; [21],2
same,Wild oats plant response rating (0 to 10 scale),"[2]; Preemergence, Rate 250 g/ha",4
same,Wild oats plant response rating,[2]; [23],9
same,"Plant response rating, Wild oats",[2]; [22],7
same,Redroot pigweed plant response rating,[3]; [17],0
same,Redroot pigweed plant response rating,[3]; [18],4
same,"Plant response rating, Redroot pigweed",[3]; [19],9
same,"Plant response rating, Redroot pigweed",[3]; [20],10
same,Redroot pigweed plant response rating,[3]; [21],10
same,Redroot pigweed plant response rating (0 to 10 scale),"[3]; Preemergence, Rate 250 g/ha",10
same,Redroot pigweed plant response rating,[3]; [23],10
same,"Plant response rating, Redroot pigweed",[3]; [22],4
same,B. signalgrass plant response rating,[4]; [17],0
same,B. signalgrass plant response rating,[4]; [18],5
same,"Plant response rating, B. signalgrass",[4]; [19],7
same,"Plant response rating, B. signalgrass",[4]; [20],10
same,B. signalgrass plant response rating,[4]; [21],9
same,"B. signalgrass plant response rating (0 to 10 scale, 0 is no effect, 10 is complete control)","[4]; Preemergence, Rate 250 g/ha",9
same,B. signalgrass plant response rating,[4]; [24],9
same,"Plant response rating, B. signalgrass",[4]; [22],7
same,Crabgrass plant response rating,[5]; [17],8
same,Crabgrass plant response rating,[5]; [18],8
same,"Plant response rating, Crabgrass",[5]; [19],9
same,"Plant response rating, Crabgrass",[5]; [20],9
same,Crabgrass plant response rating,[5]; [21],10
same,Crabgrass plant response rating (0 to 10 scale),"[5]; Preemergence, Rate 250 g/ha",10
same,Crabgrass plant response rating,[5]; [23],10
same,"Plant response rating, Crabgrass",[5]; [22],8
same,Nutsedge plant response rating,[6]; [17],0
same,Nutsedge plant response rating,[6]; [18],0
same,"Plant response rating, Nutsedge",[6]; [19],0
same,"Plant response rating, Nutsedge",[6]; [20],0
same,Nutsedge plant response rating,[6]; [21],9
same,Nutsedge plant response rating (0 to 10 scale),"[6]; Preemergence, Rate 250 g/ha",10
same,Nutsedge plant response rating,[6]; [23],10
same,"Plant response rating, Nutsedge",[6]; [22],0
same,Soybean plant response rating,[7]; [17],4
same,Soybean plant response rating,[7]; [18],6
same,"Plant response rating, Soybean",[7]; [19],6
same,"Plant response rating, Soybean",[7]; [20],0
same,Soybean plant response rating,[7]; [21],0
same,Soybean plant response rating (0 to 10 scale),"[7]; Preemergence, Rate 250 g/ha",0
same,Soybean plant response rating,[7]; [23],10
same,Rape plant response rating,[8]; [17],0
same,Rape plant response rating,[8]; [18],0
same,"Plant response rating, Rape",[8]; [19],9
same,"Plant response rating, Rape",[8]; [20],0
same,Rape plant response rating,[8]; [21],2
same,Rape plant response rating (0 to 10 scale),"[8]; Preemergence, Rate 250 g/ha",4
same,Rape plant response rating,[8]; [23],6
same,"Plant response rating, Rape",[8]; [22],0
same,Blackgrass plant response rating,[9]; [17],8
same,Blackgrass plant response rating,[9]; [18],8
same,"Plant response rating, Blackgrass",[9]; [19],8
same,"Plant response rating, Blackgrass",[9]; [20],4
same,Blackgrass plant response rating,[9]; [21],8
same,Blackgrass plant response rating (0 to 10 scale),"[9]; Preemergence, Rate 250 g/ha",9
same,Blackgrass plant response rating,[9]; [23],9
same,"Plant response rating, Blackgrass",[9]; [22],8
same,Bedstraw plant response rating,[10]; [17],0
same,Bedstraw plant response rating,[10]; [18],0
same,"Plant response rating, Bedstraw",[10]; [19],10
same,"Plant response rating, Bedstraw",[10]; [20],10
same,Bedstraw plant response rating,[10]; [21],10
same,Bedstraw plant response rating (0 to 10 scale),"[10]; Preemergence, Rate 250 g/ha",10
same,Bedstraw plant response rating,[10]; [24],10
same,"Plant response rating, Bedstraw",[10]; [22],9
same,Giant foxtail plant response rating,[11]; [17],8
same,Giant foxtail plant response rating,[11]; [18],8
same,"Plant response rating, Giant foxtail",[11]; [19],9
same,"Plant response rating, Giant foxtail",[11]; [20],10
same,Giant foxtail plant response rating,[11]; [21],10
same,Giant foxtail plant response rating (0 to 10 scale),"[11]; Preemergence, Rate 250 g/ha",10
same,Giant foxtail plant response rating,[11]; [23],10
same,Wheat plant response rating,[12]; [17],0
same,Wheat plant response rating,[12]; [18],0
same,"Plant response rating, Wheat",[12]; [19],5
same,"Plant response rating, Wheat",[12]; [20],0
same,Wheat plant response rating,[12]; [21],0
same,Wheat plant response rating (0 to 10 scale),"[12]; Preemergence, Rate 250 g/ha",2
same,Wheat plant response rating,[12]; [23],8
same,"Plant response rating, Wheat",[12]; [22],5
same,Corn plant response rating,[13]; [17],0
same,Corn plant response rating,[13]; [18],3
same,"Plant response rating, Corn",[13]; [19],5
same,"Plant response rating, Corn",[13]; [20],2
same,Corn plant response rating,[13]; [21],7
same,Corn plant response rating (0 to 10 scale),"[13]; Preemergence, Rate 250 g/ha",7
same,Corn plant response rating,[13]; [23],9
same,"Plant response rating, Corn",[13]; [22],3
same,Morningglory plant response rating,[14]; [17],3
same,Morningglory plant response rating,[14]; [18],4
same,"Plant response rating, Morningglory",[14]; [19],5
same,"Plant response rating, Morningglory",[14]; [20],0
same,Morningglory plant response rating,[14]; [21],2
same,Morningglory plant response rating (0 to 10 scale),"[14]; Preemergence, Rate 250 g/ha",2
same,Morningglory plant response rating,[14]; [23],4
same,"Plant response rating, Morningglory",[14]; [22],4
same,Sugarbeets plant response rating,[15]; [17],6
same,Sugarbeets plant response rating,[15]; [18],6
same,"Plant response rating, Sugarbeets",[15]; [19],6
same,"Plant response rating, Sugarbeets",[15]; [20],5
same,Sugarbeets plant response rating,[15]; [21],5
same,Sugarbeets plant response rating (0 to 10 scale),"[15]; Preemergence, Rate 250 g/ha",5
same,Sugarbeets plant response rating,[15]; [23],7
same,"Plant response rating, Sugarbeets",[15]; [22],6
same,Velvetleaf plant response rating,[16]; [17],2
same,Velvetleaf plant response rating,[16]; [18],5
same,"Plant response rating, Velvetleaf",[16]; [19],7
same,"Plant response rating, Velvetleaf",[16]; [20],2
same,Velvetleaf plant response rating,[16]; [21],6
same,Velvetleaf plant response rating (0 to 10 scale),"[16]; Preemergence, Rate 250 g/ha",8
same,Velvetleaf plant response rating,[16]; [23],9
same,"Plant response rating, Velvetleaf",[16]; [22],7
